Experimental data from patent US9586961B2, “Homopiperazine derivatives as protein tyrosine kinase inhibitors and pharmaceutical use thereof” (LEO PHARMA A/S, priority 2010, dated 2017).
pEC50: −log10 of the molar value.

Legend:
Format in all cases: biochemical
JAK1 = target: T1, JAK1 (Homo sapiens, UniProt P23458); experiment: JAK1 kinase assay (HTRF, inhibition of phosphorylation of a synthetic peptide); conditions: catalytic domain aa 850-1154, GST-tag; 7 μM ATP (Km); read-out: JAK1 kinase inhibitory activity (EC50)
T1 construct: JAK1 (aa 850-1154) and TYK2 (aa 871-1187) are expressed with an N-terminally fused GST-tag; GST (N); purchased Carna Biosciences, Inc; host or cells: baculovirus expression system
T1 sequence (P23458 850-1154): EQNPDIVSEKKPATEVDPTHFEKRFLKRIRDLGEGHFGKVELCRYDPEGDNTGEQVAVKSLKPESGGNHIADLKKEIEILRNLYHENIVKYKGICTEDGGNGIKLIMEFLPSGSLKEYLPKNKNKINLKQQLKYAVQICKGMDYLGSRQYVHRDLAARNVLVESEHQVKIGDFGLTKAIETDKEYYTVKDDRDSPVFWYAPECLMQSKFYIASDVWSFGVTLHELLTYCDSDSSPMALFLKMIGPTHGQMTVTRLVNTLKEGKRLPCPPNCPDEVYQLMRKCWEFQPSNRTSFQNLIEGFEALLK
Procedure, shortened: (§1)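 HTRF detection (streptavidin-XL665, cryptate anti-phospho antibody, overnight in the dark) after EDTA stop of a 20-30 min RT reaction on 1 μM TK substrate-biotin. Km-level ATP per kinase: 7 μM for JAK1 and 13 μM for TYK2, both N-terminal GST, with 50 nM SEB; 4 μM for JAK2 and 2 μM for JAK3, both His-tagged. Catalytic domains only; DMSO 0.75%.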

JAK3 = target: T2, JAK3 (Homo sapiens, UniProt P52333); experiment: JAK3 kinase assay (HTRF, inhibition of phosphorylation of a synthetic peptide); conditions: catalytic domain, His-tag; 2 μM ATP (Km); read-out: JAK3 kinase inhibitory activity (EC50)
T2 construct: All four purified enzymes contain only the catalytic domain; His (N); purchased Carna Biosciences, Inc; host or cells: baculovirus expression system
T2 sequence (P52333 822-1111 limits assumed): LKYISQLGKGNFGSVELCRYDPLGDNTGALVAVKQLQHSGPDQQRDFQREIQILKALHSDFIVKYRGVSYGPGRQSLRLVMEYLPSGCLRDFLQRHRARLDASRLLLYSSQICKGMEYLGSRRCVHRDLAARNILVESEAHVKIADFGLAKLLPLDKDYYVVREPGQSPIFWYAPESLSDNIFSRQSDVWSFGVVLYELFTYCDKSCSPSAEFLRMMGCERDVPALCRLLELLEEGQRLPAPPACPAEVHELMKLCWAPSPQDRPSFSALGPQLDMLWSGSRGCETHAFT
Procedure, shortened: as §1

TYK2 = target: T3, TYK2 (Homo sapiens, UniProt P29597); experiment: TYK2 kinase assay (HTRF, inhibition of phosphorylation of a synthetic peptide); conditions: catalytic domain aa 871-1187, GST-tag; 13 μM ATP (Km); read-out: TYK2 kinase inhibitory activity (EC50)
T3 construct: JAK1 (aa 850-1154) and TYK2 (aa 871-1187) are expressed with an N-terminally fused GST-tag; GST (N); purchased Carna Biosciences, Inc; host or cells: baculovirus expression system
T3 sequence (P29597 871-1187): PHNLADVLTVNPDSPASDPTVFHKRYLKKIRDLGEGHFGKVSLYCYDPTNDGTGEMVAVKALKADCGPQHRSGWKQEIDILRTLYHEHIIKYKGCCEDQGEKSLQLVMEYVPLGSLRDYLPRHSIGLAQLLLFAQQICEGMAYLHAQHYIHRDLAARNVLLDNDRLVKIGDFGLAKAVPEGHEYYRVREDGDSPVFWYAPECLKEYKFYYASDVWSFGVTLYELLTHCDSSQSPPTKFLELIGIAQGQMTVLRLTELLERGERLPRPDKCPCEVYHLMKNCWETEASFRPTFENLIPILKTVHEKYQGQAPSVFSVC
Procedure, shortened: as §1

JAK2 = target: T4, JAK2 (Homo sapiens, UniProt O60674); experiment: JAK2 kinase assay (HTRF, inhibition of phosphorylation of a synthetic peptide); conditions: catalytic domain, His-tag; 4 μM ATP (Km); read-out: JAK2 kinase inhibitory activity (EC50)
T4 construct: All four purified enzymes contain only the catalytic domain; His (N); purchased Carna Biosciences, Inc; host or cells: baculovirus expression system
T4 sequence (O60674 849-1124 limits assumed): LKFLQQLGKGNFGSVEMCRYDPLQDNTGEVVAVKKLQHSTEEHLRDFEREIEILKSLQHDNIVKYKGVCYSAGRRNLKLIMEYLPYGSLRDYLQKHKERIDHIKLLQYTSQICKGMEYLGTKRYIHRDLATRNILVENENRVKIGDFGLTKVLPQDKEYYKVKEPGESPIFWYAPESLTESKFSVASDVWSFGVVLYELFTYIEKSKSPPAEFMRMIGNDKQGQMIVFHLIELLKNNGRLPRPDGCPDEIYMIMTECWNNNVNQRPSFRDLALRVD
Procedure, shortened: as §1

## N#CC1(C(=O)N2CCCN(c3ncnc4[nH]ccc34)CC23CC3)CC1 [Example 60, 1-[5-(7H-pyrrolo[2,3-d]pyrimidin-4-yl)-5,9-diazaspiro[2.6]nonane-9-carbonyl]cyclopropanecarbonitrile]
JAK1
  pEC50: 6.00 to 7.00
JAK3
  pEC50: 6.00 to 7.00
TYK2
  pEC50: < 6.00
JAK2
  pEC50: > 7.00

## N#Cc1ccc(CC(=O)N2CCN(c3ncnc4[nH]ccc34)CC3(CC3)C2)cc1 [Example 10, 4-{2-oxo-2-[8-(7H-pyrrolo[2,3-d]pyrimidin-4-yl)-5,8-diazaspiro[2.6]non-5-yl]ethyl}benzonitrile]
JAK1
  pEC50: > 7.00
JAK3
  pEC50: > 7.00
TYK2
  pEC50: 6.00 to 7.00
JAK2
  pEC50: > 7.00

## N#CCCC(=O)N1CCN(c2ncnc3[nH]ccc23)CCC12CC2 [Example 49, 4-oxo-4-[6-(7H-pyrrolo[2,3-d]pyrimidin-4-yl)-6,9-diazaspiro[2.6]nonan-9-yl]butanenitrile]
JAK1
  pEC50: 6.00 to 7.00
JAK3
  pEC50: 6.00 to 7.00
TYK2
  pEC50: < 6.00
JAK2
  pEC50: 6.00 to 7.00

## N#CCc1ccccc1C(=O)N1CCN(c2ncnc3[nH]ccc23)CCC12CC2 [Example 48, 2-[2-[6-(7H-pyrrolo[2,3-d]pyrimidin-4-yl)-6,9-diazaspiro[2.6]nonane-9-carbonyl]phenyl]acetonitrile]
JAK1
  pEC50: < 6.00
JAK3
  pEC50: < 6.00
TYK2
  pEC50: < 6.00
JAK2
  pEC50: < 6.00

## N#Cc1ccc(CCC(=O)N2CCN(c3ncnc4[nH]ccc34)CC3(CC3)C2)cc1 [Example 115, 4-[3-oxo-3-[5-(7H-pyrrolo[2,3-d]pyrimidin-4-yl)-5,8-diazaspiro[2.6]nonan-8-yl]propyl]benzonitrile]
JAK1
  pEC50: > 7.00
JAK3
  pEC50: > 7.00
TYK2
  pEC50: 6.00 to 7.00
JAK2
  pEC50: > 7.00

## N#Cc1cccc(CC(=O)N2CCN(c3ncnc4[nH]ccc34)CCC23CC3)c1 [Example 47, 3-[2-oxo-2-[6-(7H-pyrrolo[2,3-d]pyrimidin-4-yl)-6,9-diazaspiro[2.6]nonan-9-yl]ethyl]benzonitrile]
JAK1
  pEC50: < 6.00
JAK3
  pEC50: < 6.00
TYK2
  pEC50: < 6.00
JAK2
  pEC50: < 6.00

## CN(C)S(=O)(=O)c1ccc(C(=O)N2CCN(c3ncnc4[nH]ccc34)CC3(CC3)C2)cc1 [Example 33, N,N-dimethyl-4-[5-(7H-pyrrolo[2,3-d]pyrimidin-4-yl)-5,8-diazaspiro[2.6]nonane-8-carbonyl]benzenesulfonamide]
JAK1
  pEC50: 6.00 to 7.00
JAK3
  pEC50: 6.00 to 7.00
TYK2
  pEC50: < 6.00
JAK2
  pEC50: 6.00 to 7.00

## CC1CN(c2ncnc3[nH]ccc23)CC2(CC2)CN1C(=O)CC1CCCC1 (centres unmarked) [Example 285, 2-cyclopentyl-1-[7-methyl-5-(7H-pyrrolo[2,3-d]pyrimidin-4-yl)-5,8-diazaspiro[2.6]nonan-8-yl]ethanone]
JAK1
  pEC50: 6.00 to 7.00
JAK3
  pEC50: < 6.00
TYK2
  pEC50: < 6.00
JAK2
  pEC50: 6.00 to 7.00

## O=C(c1csnn1)N1CCCN(c2ncnc3[nH]ccc23)CC12CC2 [Example 142, [5-(7H-pyrrolo[2,3-d]pyrimidin-4-yl)-5,9-diazaspiro[2.6]nonan-9-yl]-(thiadiazol-4-yl)methanone]
JAK1
  pEC50: > 7.00
JAK3
  pEC50: 6.00 to 7.00
TYK2
  pEC50: 6.00 to 7.00
JAK2
  pEC50: > 7.00

## O=C(c1cc2ccccc2s1)N1CCN(c2ncnc3[nH]ccc23)CC2(CC2)C1 [Example 18, benzothiophen-2-yl-[5-(7H-pyrrolo[2,3-d]pyrimidin-4-yl)-5,8-diazaspiro[2.6]nonan-8-yl]methanone]
JAK1
  pEC50: > 7.00
JAK3
  pEC50: 6.00 to 7.00
TYK2
  pEC50: < 6.00
JAK2
  pEC50: 6.00 to 7.00

## O=C(Cc1cccs1)N1CCN(c2ncnc3[nH]ccc23)CC2(CC2)C1 [Example 30, 1-[5-(7H-pyrrolo[2,3-d]pyrimidin-4-yl)-5,8-diazaspiro[2.6]nonan-8-yl]-2-(2-thienyl)ethanone]
JAK1
  pEC50: > 7.00
JAK3
  pEC50: 6.00 to 7.00
TYK2
  pEC50: 6.00 to 7.00
JAK2
  pEC50: > 7.00

## CC1CN(c2ncnc3[nH]ccc23)CC2(CC2)CN1C(=O)Cc1ccc(C#N)cc1 (centres unmarked) [Example 286, 4-[2-[7-methyl-5-(7H-pyrrolo[2,3-d]pyrimidin-4-yl)-5,8-diazaspiro[2.6]nonan-8-yl]-2-oxo-ethyl]benzonitrile]
JAK1
  pEC50: < 6.00
JAK3
  pEC50: < 6.00
TYK2
  pEC50: < 6.00
JAK2
  pEC50: < 6.00

## COc1cc(OC)cc(C(=O)N2CCN(c3ncnc4[nH]ccc34)CC3(CC3)C2)c1 [Example 43, (3,5-dimethoxyphenyl)-[5-(7H-pyrrolo[2,3-d]pyrimidin-4-yl)-5,8-diazaspiro[2.6]nonan-8-yl]methanone]
JAK1
  pEC50: < 6.00
JAK3
  pEC50: < 6.00
TYK2
  pEC50: < 6.00
JAK2
  pEC50: < 6.00

## CC1CN(c2ncnc3[nH]ccc23)CC2(CC2)CN1C(=O)Nc1ccccc1 (centres unmarked) [Example 99, 7-methyl-N-phenyl-5-(7H-pyrrolo[2,3-d]pyrimidin-4-yl)-5,8-diazaspiro[2.6]nonane-8-carboxamide]
JAK1
  pEC50: < 6.00
JAK3
  pEC50: < 6.00
TYK2
  pEC50: < 6.00
JAK2
  pEC50: < 6.00

## NS(=O)(=O)c1csc(C(=O)N2CCN(c3ncnc4[nH]ccc34)CC3(CC3)C2)c1 [Example 27, 5-[5-(7H-pyrrolo[2,3-d]pyrimidin-4-yl)-5,8-diazaspiro[2.6]nonane-8-carbonyl]thiophene-3-sulfonamide]
JAK1
  pEC50: 6.00 to 7.00
JAK3
  pEC50: > 7.00
TYK2
  pEC50: < 6.00
JAK2
  pEC50: > 7.00

## CS(=O)(=O)Nc1ccc(C(=O)N2CCN(c3ncnc4[nH]ccc34)CC3(CC3)C2)cc1 [Example 102, N-[4-[5-(7H-pyrrolo[2,3-d]pyrimidin-4-yl)-5,8-diazaspiro[2.6]nonane-8-carbonyl]phenyl]methanesulfonamide]
JAK1
  pEC50: 6.00 to 7.00
JAK3
  pEC50: 6.00 to 7.00
TYK2
  pEC50: < 6.00
JAK2
  pEC50: 6.00 to 7.00

## N#Cc1ccc(C(F)(F)C(=O)N2CCN(c3ncnc4[nH]ccc34)CC3(CC3)C2)cc1 [Example 13, 4-[1,1-difluoro-2-oxo-2-[5-(7H-pyrrolo[2,3-d]pyrimidin-4-yl)-5,8-diazaspiro[2.6]nonan-8-yl]ethyl]benzonitrile]
JAK1
  pEC50: 6.00 to 7.00
JAK3
  pEC50: < 6.00
TYK2
  pEC50: < 6.00
JAK2
  pEC50: > 7.00

## N#Cc1cccc(CCC(=O)N2CCN(c3ncnc4[nH]ccc34)CC3(CC3)C2)c1 [Example 116, 3-[3-oxo-3-[5-(7H-pyrrolo[2,3-d]pyrimidin-4-yl)-5,8-diazaspiro[2.6]nonan-8-yl]propyl]benzonitrile]
JAK1
  pEC50: 6.00 to 7.00
JAK3
  pEC50: 6.00 to 7.00
TYK2
  pEC50: < 6.00
JAK2
  pEC50: > 7.00

## O=C(c1cc2ccccc2s1)N1CCN(c2ncnc3[nH]ccc23)CCC12CC2 [Example 46, benzothiophen-2-yl-[6-(7H-pyrrolo[2,3-d]pyrimidin-4-yl)-6,9-diazaspiro[2.6]nonan-9-yl]methanone]
JAK1
  pEC50: 6.00 to 7.00
JAK3
  pEC50: < 6.00
TYK2
  pEC50: < 6.00
JAK2
  pEC50: 6.00 to 7.00

## NS(=O)(=O)c1cc(C(=O)N2CCN(c3ncnc4[nH]ccc34)CC3(CC3)C2)cs1 [Example 75]
JAK1
  pEC50: > 7.00
JAK3
  pEC50: 6.00 to 7.00
TYK2
  pEC50: 6.00 to 7.00
JAK2
  pEC50: > 7.00

## Cc1ccc(CC(=O)N2CCN(c3ncnc4[nH]ccc34)CC3(CC3)C2)cc1 [Example 263]
JAK1
  pEC50: > 7.00
JAK3
  pEC50: 6.00 to 7.00
TYK2
  pEC50: 6.00 to 7.00
JAK2
  pEC50: > 7.00

## CCCCS(=O)(=O)N1CCN(c2ncnc3[nH]ccc23)CC2(CC2)C1 [Example 97, 4-(8-butylsulfonyl-5,8-diazaspiro[2.6]nonan-5-yl)-7H-pyrrolo[2,3-d]pyrimidine]
JAK1
  pEC50: 6.00 to 7.00
JAK3
  pEC50: < 6.00
TYK2
  pEC50: < 6.00
JAK2
  pEC50: 6.00 to 7.00

## N#Cc1ccc(C(=O)N2CCN(c3ncnc4[nH]ccc34)CC3(CC3)C2)s1 [Example 51, 5-[5-(7H-pyrrolo[2,3-d]pyrimidin-4-yl)-5,8-diazaspiro[2.6]nonane-8-carbonyl]thiophene-2-carbonitrile]
JAK1
  pEC50: > 7.00
JAK3
  pEC50: > 7.00
TYK2
  pEC50: 6.00 to 7.00
JAK2
  pEC50: > 7.00

## Cc1c[nH]c(C(=O)N2CCCN(c3ncnc4[nH]ccc34)CC23CC3)c1 [Example 277, (4-methyl-1H-pyrrol-2-yl)-[5-(7H-pyrrolo[2,3-d]pyrimidin-4-yl)-5,9-diazaspiro[2.6]nonan-9-yl]methanone]
JAK1
  pEC50: > 7.00
JAK3
  pEC50: 6.00 to 7.00
TYK2
  pEC50: 6.00 to 7.00
JAK2
  pEC50: > 7.00

## Nc1nc(N2CCN(Cc3ccccc3)CC3(CC3)C2)c2cc[nH]c2n1 [Example 68, 4-(5-benzyl-5,8-diazaspiro[2.6]nonan-8-yl)-7H-pyrrolo[2,3-d]pyrimidin-2-amine]
JAK1
  pEC50: < 6.00
JAK3
  pEC50: < 6.00
TYK2
  pEC50: < 6.00
JAK2
  pEC50: < 6.00

## COc1cc(C(=O)N2CCN(c3ncnc4[nH]ccc34)CC3(CC3)C2)ccc1S(N)(=O)=O [Example 53, 2-methoxy-4-[5-(7H-pyrrolo[2,3-d]pyrimidin-4-yl)-5,8-diazaspiro[2.6]nonane-8-carbonyl]benzenesulfonamide]
JAK1
  pEC50: 6.00 to 7.00
JAK3
  pEC50: < 6.00
TYK2
  pEC50: < 6.00
JAK2
  pEC50: 6.00 to 7.00
